What was measured:
[1] = test system: Enterococcus faecalis ATCC 29212; experiment: Colony-forming unit (CFU) assay of antibacterial activity with NaCl dependence; type: cell-based; conditions: for antibacterial activity, inhibition by NaCl: 50 mM NaCl; for antibacterial activity at 200 mM NaCl: p<0.001 versus hBD3 in the same conditions; for antibacterial activity compared to wild-type hBD3: peptide 12.5 µM, p<0.01; for antibacterial activity at 200 mM NaCl / antibacterial activity compared to wild-type hBD3: 200 mM NaCl
Description: (§1) Colony-forming unit (CFU) assay of the antibacterial activity of the peptides against P.aeruginosa ATCC (American Type Culture Collection, Manassas, VA, USA) 27853, Enterococcus faecalis ATCC 29212 and Escherichia coli ATCC 25922 was performed. The strains were grown in aerobic conditions in tryptic soy broth (Difco Laboratories, Detroit, MI, USA) at 37°C. Cells from exponential-phase cultures were centrifuged, washed and suspended to a density of 1 x 10^5 CFU/mL in sterile 10 mM potassium phosphate buffer, pH 7.4, and incubated in the presence of the peptides. The incubation time was 2 h at 37°C. […] For salt dependence assay, NaCl in a range of concentrations potentially present in the airway surface fluid of normal subjects and CF patients (33), i.e., 0, 50, 100 and 200 mM NaCl, were included in the incubation buffer. The cells were then diluted serially in the same buffer, spread on tryptone-yeast (Difco Laboratories) plates and the colonies were counted after 18 h at 37°C. Each assay was performed in triplicate. Bactericidal activity (mean and SD of three assays) is expressed as the ratio between colonies counted and the number of colonies on a control plate.

P.aeruginosa ATCC 27853 = experiment: as above; type: cell-based; conditions: for antibacterial activity, inhibition by NaCl: 50 mM NaCl; for antibacterial activity at 200 mM NaCl: p<0.001 versus hBD3 in the same conditions; for antibacterial activity at 200 mM NaCl / antibacterial activity compared to wild-type hBD3: 200 mM NaCl
Description: as §1

[2] = test system: Escherichia coli ATCC 25922; experiment: as above; type: cell-based; conditions: for antibacterial activity, inhibition by NaCl: 50 mM NaCl; for antibacterial activity at 200 mM NaCl: p<0.001 versus hBD3 in the same conditions; for antibacterial activity compared to wild-type hBD3: peptide 12.5 µM, p<0.01; for antibacterial activity at 200 mM NaCl / antibacterial activity compared to wild-type hBD3: 200 mM NaCl
Description: as §1

neutrophils = experiment: Chemotaxis assay (leukocyte migration, calcein fluorescence); type: cell-based, human; conditions: for chemotactic activity compared to wild-type hBD1: peptide 1.25 µM
Description: (§2) Preparation of leukocytes-Monocytes and neutrophils were isolated as described in the StemSep Cell Technical Manual (Stem Cell Technologies, Vancouver, Canada). Briefly, to obtain neutrophils, buffy coats were diluted 1:20 in NH4Cl supplemented with 2 mM EDTA and incubated on ice for 20 min. Cell suspensions were centrifuged for 10 min at 600 X g at room temperature with the brake off and washed three times with phosphate buffered saline (PBS) supplemented with 2% foetal bovine serum and 2 mM EDTA. Cell viability was assessed by analysis of light scatter properties, and cell count was performed using a logical gate strategy based on Trucount tubes (Becton-Dickinson, San Jose, CA, USA). Neutrophils were purified from lysed buffy coats using StemSep negative selection system. To this purpose, 100x10^6 mononuclear cells from lysed buffy coats were incubated with 100 µL of custom antibody cocktail for human granulocytes enrichment (Stem Cell Technologies) for 45 min on ice. In addition, cell suspensions were incubated with 60 µL of magnetic colloid for 30 minutes on ice. Finally, the samples were run through a 0.3-inch column matrix in a negative selection system in which the unwanted cells were immunomagnetically labelled and bound to the magnetic column. Neutrophils, after the separation, were collected in the column flowthrough without antibody bound to their surface. In order to obtain monocytes, human buffy coats were layered over a Ficoll-Paque density gradient and spun at 600 X g for 30 min with the brake off. The mononuclear cell-rich fractions were washed three times with PBS supplemented with 2% foetal bovine serum (FBS) and 2 mM EDTA. Cell viability was assessed by analysis of light scatter properties, and cell count was performed using a logical gate strategy based on Trucount tubes (Becton-Dickinson). A custom antibody cocktail for human monocyte enrichment (Stem Cells Technologies) was used for immunomagnetic negative selection of monocytes. Mononuclear cells were incubated as above described for neutrophils. Both neutrophils and monocytes were resuspended in 5.0 mL of RPMI-1640 (Sigma-Aldrich, St Louis, MO, USA) without phenol red containing 10% heat-treated FBS. Calcein AM (Molecular Probes, Eugene, OR, USA) was added to the cell suspensions (5.0 mL) at a concentration of 5 µg/mL and the cells were incubated for 30 min at 37°C. Cell suspensions were washed twice with PBS and then resuspended in RPMI-FBS to the desired concentration.
(§3) Measurement of leukocytes migration-The chemotaxis assay of monocytes and neutrophils (90-95% of purity) was performed in 96-well disposable chemotaxis chambers (Neuroprobe, Gaithersburg, MD, USA) using polyvinyl-pyrrolidone-free polycarbonate membranes with an […] pore size for monocytes and with a […] pore size for neutrophils. Chemotaxis was measured by fluorescence detection, using the calcein fluorescence signal. The fluorescence was read in a microplate fluorescence reader (Victor 3 1420 Multilabel Counter, Perkin Elmer) with excitation/emission wave-length settings of 485/530 nm. We calculated the migration index as the ratio between the sample mean fluorescence (after subtraction of the negative control mean fluorescence)/positive control mean fluorescence. Each assay was performed in quadruplicate.

monocytes = experiment: as above; type: cell-based, human; conditions: for chemotactic activity compared to wild-type hBD1: peptide 1.25 µM
Description: as §2, §3

HSV-1 = HSV-1 infectivity plaque assay on Vero cell monolayers (co-exposure, virus pre-treatment, cell pre-exposure); type: cell-based; conditions: for % of infectivity: mean and SD of 3 replicates; for inhibition of HSV infectivity: peptide 50 µM, reduced form
Description: Vero cells were grown in Dulbecco's modified Eagle's medium (DMEM) supplemented with 10% foetal calf serum. HSV-1 carrying a IacZ gene driven by the cytomegalovirus (CMV) IE-1 promoter to express beta-galactosidase was propagated as described (33). Peptides were dissolved in DMEM with serum and used at different concentrations. All experiments were conducted in parallel with scrambled peptides and no-peptide controls. […] Non-penetrated viruses were inactivated by citrate buffer at pH 3.0 after the 45 min incubation with cells at 37°C. The cells were then incubated for 48 h at 37°C in DMEM supplemented with carboxymethylcellulose (CMC). Monolayers were fixed, stained with 5-bromo-4-chloro-3-indolyl-beta-D-galactopyranoside (X-gal) and plaque numbers were scored. Experiments were performed in triplicate and the percentage of inhibition was calculated with respect to no-peptide control experiments. ii) For "virus pre-treatment" experiments, approximately 2 x 10^4 plaque forming units (PFU) of HSV-1 were incubated in the presence of 20 µM of peptides for 45 min at 37°C, then titrated on Vero cell monolayers. iii) For "cell pre-exposure" experiments, Vero cells were incubated with 20 µM of peptides for 30 min at 4°C. Peptides were removed, and cells were washed with phosphate-buffered saline before being infected with serial dilutions of HSV-1 and incubated for 45 min at 37°C.
Monolayers were exposed to different concentrations (10, 50, 100, 250 and 500 µM) of each peptide for 24 h, and cell viability was evaluated with the LDH assay. There was no significant difference between the viability of cells exposed to the peptides and that of cells exposed to control (data not shown). Thus, we evaluated the antiviral activity of wild type peptides and their analogs in: co-exposure experiments (cell + virus + peptide at zero time); virus pre-treatment (virus + peptide incubation before cell infection); and cell pre-exposure (cell + peptide incubation before virus infection). This would allow to evaluate if, and in which phase, the peptides could inhibit the virus infectivity.
For co-exposure experiments, we incubated the peptides on the monolayers of Vero cells together with the virus inoculum for 45 min before low pH treatment. The reduced form of wild-type hBD1 and hBD3 and analogs 1C, 1 N, 3C, 3N were used in all subsequent experiments. […] No control (peptide excluded) inhibited HSV-1 infectivity under similar experimental conditions.

[3] = cell pre-exposure, peptide 20 µM
[4] = virus pre-incubation, peptide 20 µM
[5] = 0 to 200 mM NaCl, pattern as against P. aeruginosa

Sequence | antibacterial activity, inhibition by NaCl [1] | antibacterial activity, inhibition by NaCl (P.aeruginosa ATCC 27853) | antibacterial activity, inhibition by NaCl [2] | chemotactic activity compared to wild-type hBD1 (neutrophils) | antibacterial activity at 200 mM NaCl [1] | antibacterial activity at 200 mM NaCl (P.aeruginosa ATCC 27853) | antibacterial activity at 200 mM NaCl [2] | chemotactic activity compared to wild-type hBD1 (monocytes) | % of infectivity (HSV-1; [3]) [%] | % of infectivity (HSV-1; co-exposure, peptide 20 µM) [%] | % of infectivity (HSV-1; [4]) [%] | other results
DHYNCVSSGGQCLYSACLPKEEQIGKCYRGKAKCCK [1I] | inhibited already by 50 mM NaCl | inhibited already by 50 mM NaCl | inhibited already by 50 mM NaCl | significantly lower activity | – | – | – | – | – | – | – | –
DHYNCVSSGGQCLYSACLPKEEQIGKCYRGKRKCCRRKK [1CI] | – | – | – | significantly lower activity | displayed antibacterial activity | displayed antibacterial activity | displayed antibacterial activity | significantly lower | – | – | – | –
DHYNCVSSGGQCLYSACPIFTKIQGTCYRGKAKCCK [hBD1 wt, wild type human beta-defensin 1, reference compound] | inhibited already by 50 mM NaCl | inhibited already by 50 mM NaCl | inhibited already by 50 mM NaCl | – | – | – | – | – | 71.3±1.2 | 74.7±2.4 | 65.3±3.8 | chemotactic activity, effect of NaCl (monocytes; 200 mM NaCl): comparable to that obtained at 100 mM NaCl; chemotactic activity, effect of NaCl (monocytes; NaCl between 100 and 150 mM, p<0.001): significantly increased; chemotactic activity, effect of NaCl (neutrophils; NaCl concentrations up to 200 mM): did not significantly affect
DHYNCVSSGGQCLYSACPIFTKIQGTCYRGKRKCCRRKK [1C] | – | – | – | comparable to that of hBD1 | – | – | – | significantly lower | 24.1±2.2 | 57.6±1.8 | 40.3±2.6 | antibacterial activity compared to wild-type hBD3, pattern over NaCl concentrations [1, 5]: same pattern of activity; antibacterial activity compared to wild-type hBD3 (P.aeruginosa ATCC 27853; peptide 2.5 and 12.5 µM, p<0.001): significantly higher; antibacterial activity compared to wild-type hBD3, pattern over NaCl concentrations [2, 5]: same pattern of activity; antiviral activity in words (HSV-1; cell pre-exposure treatment, peptide 20 µM): active; inhibition of HSV infectivity (HSV-1; co-exposure): 70%
GIINTLDHYNCVSSGGQCLYSACPIFTKIQGTCYRGKAKCCK [1N] | inhibited already by 50 mM NaCl | inhibited already by 50 mM NaCl | inhibited already by 50 mM NaCl | significantly lower activity | – | – | – | comparable to that of wild-type hBD1 | 64.8±3.5 | 73.2±4.2 | 75.6±3.5 | antibacterial activity compared to wild-type hBD3 [1]: significantly higher; antibacterial activity compared to wild-type hBD3 (P.aeruginosa ATCC 27853; peptide 12.5 µM, p<0.01): significantly higher; antibacterial activity compared to wild-type hBD3 [2]: significantly higher
GIINTLQKYYCRVRGGRCAVLSCLPKEEQIGKCSTRGAKCCK [3C] | – | – | – | – | – | – | – | – | 50.3±3.4 | 61.7±3.4 | 32.4±4.3 | –
GIINTLQKYYCRVRGGRCAVLSCPIFTKIQGTCSTRGAKCCK [3CI] | inhibited already by 50 mM NaCl | inhibited already by 50 mM NaCl | inhibited already by 50 mM NaCl | significantly higher | – | – | – | significantly lower | – | – | – | antibacterial activity compared to wild-type hBD3 [1]: significantly higher; antibacterial activity compared to wild-type hBD3 (P.aeruginosa ATCC 27853; peptide 12.5 µM, p<0.01): significantly higher; antibacterial activity compared to wild-type hBD3 [2]: significantly higher
GIINTLQKYYCRVRGGRCAVLSCPIFTKIQGTCSTRGRKCCRRKK [3I] | – | – | – | – | displayed antibacterial activity | displayed antibacterial activity | displayed antibacterial activity | comparable to that of wild-type hBD1 | – | – | – | –
QKYYCRVRGGRCAVLSCLPKEEQIGKCSTRGRKCCRRKK [3N] | – | – | – | comparable to that of hBD1 | displayed antibacterial activity | displayed antibacterial activity | displayed antibacterial activity | – | 13.4±4.2 | 20.4±2.4 | 8.5±2.1 | inhibition of HSV infectivity (HSV-1; co-exposure): 90%
